From patent publication US9247741B2, “Use of macrocyclic picolinamides as fungicides” (DOW AGROSCIENCES LLC, priority 2013, dated 2016) come the findings set out here.

Read-outs that look alike come from different tables or passages of the source. Where only a bound is given, the exact number is not on record here.

What all share (format): in vivo
For assay [1], the system named is Mycosphaerella graminicola; Anamorph: Septoria tritici. The assay is described as follows: Leaf blotch of wheat (SEPTTR) disease control on wheat seedlings. The conditions noted are these: Zymoseptoria tritici, wheat; for pest or weed control at 121.5 g/ha: 121.5 g/H (low volume track spray); for pest or weed control at 100 ppm: 100 ppm (high volume). As for the experimental part:
Evaluation of Fungicidal Activity: Leaf Blotch of Wheat (Mycosphaerella graminicola; Anamorph: Septoria tritici; Bayer Code […]) Technical grades of materials were dissolved in acetone, which were then mixed with nine volumes of water containing 110 ppm Triton X-100. The fungicide solutions were applied onto wheat seedlings using an automated booth sprayer to run-off. All sprayed plants were allowed to air dry prior to further handling. All fungicides were evaluated using the aforementioned method for their activity vs. all target diseases. Wheat leaf blotch and brown rust activity were also evaluated using track spray applications, in which case the fungicides were formulated as EC formulations, containing 0.1% Trycol 5941 in the spray solutions. Wheat plants (variety Yuma) were grown from seed in a greenhouse in 50% mineral soil/50% soil-less Metro mix until the first leaf was fully emerged, with 7-10 seedlings per pot. These plants were inoculated with an aqueous spore suspension of Septoria tritici either prior to or after fungicide treatments. After inoculation the plants were kept in 100% relative humidity (one day in a dark dew chamber followed by two to three days in a lighted dew chamber at 20° C.) to permit spores to germinate and infect the leaf. The plants were then transferred to a greenhouse set at 20° C. for disease to develop. When disease symptoms were fully expressed on the l^st leaves of untreated plants, infection levels were assessed on a scale of 0 to 100 percent disease severity. Percent disease control was calculated using the ratio of disease severity on treated plants relative to untreated plants.

Another assay deals with Erysiphe cichoracearum. As to the kind of experiment: Powdery mildew of cucumber (ERYSCI) disease control. The conditions noted are these: Golovinomyces cichoracearum, 24 h, 1 Day Protectant, read-out: ERYSCI disease control rating. As for the experimental part: Technical grades of materials were dissolved in acetone, which were then mixed with nine volumes of water containing 110 ppm Triton X-100. The fungicide solutions were applied onto wheat seedlings using an automated booth sprayer to run-off. All sprayed plants were allowed to air dry prior to further handling. All fungicides were evaluated using the aforementioned method for their activity vs. all target diseases. Wheat leaf blotch and brown rust activity were also evaluated using track spray applications, in which case the fungicides were formulated as EC formulations, containing 0.1% Trycol 5941 in the spray solutions. Wheat plants (variety Yuma) were grown from seed in a greenhouse in 50% mineral soil/50% soil-less Metro mix until the first leaf was fully emerged, with 7-10 seedlings per pot. These plants were inoculated with an aqueous spore suspension of Septoria tritici either prior to or after fungicide treatments. After inoculation the plants were kept in 100% relative humidity (one day in a dark dew chamber followed by two to three days in a lighted dew chamber at 20° C.) to permit spores to germinate and infect the leaf. The plants were then transferred to a greenhouse set at 20° C. for disease to develop. When disease symptoms were fully expressed on the l^st leaves of untreated plants, infection levels were assessed on a scale of 0 to 100 percent disease severity. Percent disease control was calculated using the ratio of disease severity on treated plants relative to untreated plants. Evaluation of Fungicidal Activity: Powdery Mildew of Cucumber (Erysiphe cichoracearum; Bayer Code […]) Cucumber seedlings (variety Bush Pickle) were grown in soil-less Metro mix, with one plant per pot, and used in the test when 12 to 14 days old. Plants were inoculated with a spore suspension 24 hr following fungicide treatments. After inoculation the plants remained in the greenhouse set at 20° C. until disease was fully expressed. Fungicide formulation, application and disease assessment on the sprayed leaves followed the procedures as described in the Example A.

Assay [2] has as its system Blumeria graminis Fsp. Hordei. The assay is described as follows: Barley powdery mildew (ERYSGH) disease control. Conditions: 24 h, 1 Day Protectant, read-out: ERYSGH disease control rating. How it is done:
Technical grades of materials were dissolved in acetone, which were then mixed with nine volumes of water containing 110 ppm Triton X-100. The fungicide solutions were applied onto wheat seedlings using an automated booth sprayer to run-off. All sprayed plants were allowed to air dry prior to further handling. All fungicides were evaluated using the aforementioned method for their activity vs. all target diseases. Wheat leaf blotch and brown rust activity were also evaluated using track spray applications, in which case the fungicides were formulated as EC formulations, containing 0.1% Trycol 5941 in the spray solutions. Wheat plants (variety Yuma) were grown from seed in a greenhouse in 50% mineral soil/50% soil-less Metro mix until the first leaf was fully emerged, with 7-10 seedlings per pot. These plants were inoculated with an aqueous spore suspension of Septoria tritici either prior to or after fungicide treatments. After inoculation the plants were kept in 100% relative humidity (one day in a dark dew chamber followed by two to three days in a lighted dew chamber at 20° C.) to permit spores to germinate and infect the leaf. The plants were then transferred to a greenhouse set at 20° C. for disease to develop. When disease symptoms were fully expressed on the l^st leaves of untreated plants, infection levels were assessed on a scale of 0 to 100 percent disease severity. Percent disease control was calculated using the ratio of disease severity on treated plants relative to untreated plants. Evaluation of Fungicidal Activity: Barley Powdery Mildew (Blumeria graminis Fsp. Hordei; Synonym: Erysiphe graminis Fsp. Hordei; Bayer Code […]) Barley seedlings (variety Harrington) were propagated in soil-less Metro mix, with each pot having 8 to 12 plants, and used in the test when first leaf was fully emerged. Test plants were inoculated by dusting with infected stock plants 24 hr after fungicide treatments. After inoculation the plants were kept in a greenhouse set at 20° C. for disease to develop. Fungicide formulation, application and disease assessment on the sprayed leaves followed the procedures as described in the Example A.

Setting [3] is: 24 h, 1 Day Protectant, read-out: SEPTTR 1DP disease control rating.
[4] abbreviates: 72 h, 3 Day Curative, read-out: SEPTTR 3DC disease control rating.

With `CCCO[C@H]1CCC[C@H](NC(=O)c2nccc(OC)c2OC(C)=O)C(=O)O[C@@H](C)[C@@H]1CCC(C)C` [Compound 74, 2-(((3S,7S,8S,9S)-8-isopentyl-9-methyl-2-oxo-7-propoxyoxonan-3-yl)carbamoyl)-4-methoxypyridin-3-yl acetate], the pest or weed control at 121.5 g/ha in assay [1] (setting [3]) and in assay [1] (setting [4]) was more than 70% in each case. For the same compound, the pest or weed control at 100 ppm was more than 70% in the assay with Erysiphe cichoracearum and less than 70% in assay [2].
Consider `COc1ccnc(C(=O)N[C@H]2CCC[C@H](Oc3ccccc3)[C@@H](CCC(C)C)[C@H](C)OC2=O)c1OC(C)=O` [Compound 36], for which the pest or weed control at 121.5 g/ha in assay [1] (setting [3]) and in assay [1] (setting [4]) was more than 70% throughout. Moreover, the pest or weed control at 100 ppm (in the assay on Erysiphe cichoracearum; in assay [2]) was more than 70% throughout.
With `CCCO[C@H]1CCC[C@H](NC(=O)c2nccc(OC)c2OC(C)=O)C(=O)O[C@@H](C)[C@@H]1Cc1ccccc1` [Compound 70], the pest or weed control at 100 ppm is more than 70% in assay [1] (setting [3]), more than 70% in assay [1] (setting [4]), less than 70% in the assay with Erysiphe cichoracearum and less than 70% in assay [2]. Further, the pest or weed control at 121.5 g/ha in assay [1] (setting [3]) and in assay [1] (setting [4]) was more than 70% in each case.
For `CCCC[C@H]1[C@H](C)OC(=O)[C@@H](NC(=O)c2nccc(OC)c2OCOC(C)=O)CCC[C@@H]1OCC1CC1` [Compound 73], the pest or weed control at 121.5 g/ha in assay [1] (setting [3]) and in assay [1] (setting [4]) was more than 70% each time. Moreover, the pest or weed control at 100 ppm in the assay with Erysiphe cichoracearum is less than 70%; in assay [2], more than 70%.
With `CCCC[C@H]1[C@H](C)OC(=O)[C@@H](NC(=O)c2nccc(OC)c2OCOC(C)=O)CCC[C@@H]1Oc1ccccc1` [Compound 33], the pest or weed control at 121.5 g/ha in assay [1] (setting [3]) and in assay [1] (setting [4]) was more than 70% each time. Besides, the pest or weed control at 100 ppm (with Erysiphe cichoracearum; in assay [2]) was more than 70% each time.
As to `CCCO[C@H]1CCC[C@H](NC(=O)c2nccc(OC)c2OCOC(C)=O)C(=O)O[C@@H](C)[C@@H]1CCC(C)C` [Compound 25, ((2-(((3S,7S,8S,9S)-8-isopentyl-9-methyl-2-oxo-7-propoxyoxonan-3-yl)carbamoyl)-4-methoxypyridin-3-yl)oxy)methyl acetate], the pest or weed control at 121.5 g/ha is less than 70% in assay [1] (setting [3]) and more than 70% in assay [1] (setting [4]). Moreover, the results for the pest or weed control at 100 ppm (in the assay with Erysiphe cichoracearum; in assay [2]) were less than 70% and more than 70%, respectively.
For `COc1ccnc(C(=O)N[C@H]2CCC[C@H](Oc3ccccc3)[C@@H](CCC(C)C)[C@H](C)OC2=O)c1OCOC(C)=O` [Compound 40], the pest or weed control at 121.5 g/ha in assay [1] (setting [3]) and in assay [1] (setting [4]) was more than 70% throughout. In addition, the pest or weed control at 100 ppm (in the assay with Erysiphe cichoracearum; in assay [2]) was more than 70% in each case.
For `COc1ccnc(C(=O)N[C@H]2CCC[C@H](OCC3CC3)[C@@H](Cc3ccc(F)cc3)[C@H](C)OC2=O)c1OCOC(C)=O` [Compound 61], the pest or weed control at 121.5 g/ha in assay [1] (setting [3]) and in assay [1] (setting [4]) was more than 70% each time. In addition, the pest or weed control at 100 ppm (in the assay on Erysiphe cichoracearum; in assay [2]) was less than 70% throughout.
